Results published in patent US11384078B2, “5,6-fused-bicyclic compounds and compositions for the treatment of parasitic diseases” (NOVARTIS AG, priority 2017, dated 2022).

What was measured:
Assay type in all cases: cell-based
[1] = test system: Leishmania donovani axenic amastigote; assay: In vitro assay for growth inhibition of Leishmania donovani axenic amastigote (Cell TiterGlo luminescence); details: Leishmania donovani, L. donovani axenic amastigotes in vitro; read-out: L. donovani amastigotes EC50
Summary of the method: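 Compound-treated wells received 9600 axenic amastigotes in RPMI 1640-based medium at pH 5.5 (37 °C, 5% CO2). Growth measured as ATP luminescence (CellTiter-Glo) after 2-day incubation; DMSO and reference compounds served as controls.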

[2] = test system: L. donovani HU3 strain in mouse peritoneal macrophages; assay: Assay for inhibition of parasitemia of Leishmania donovani in mouse macrophages (SYBR Green nuclei count, high-content imaging); details: Leishmania donovani, Peritoneal macrophage, L. donovani in mouse peritoneal macrophages; read-out: L. donovani in Mouse Macrophages EC50
Summary of the method: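 Parasite numbers were counted from SYBR Green-stained nuclei imaged by high-content microscopy after paraformaldehyde fixation and Triton permeabilization. Before this, compound was applied for 5 days at 37° C to BALB/c peritoneal macrophages (2×10^4/well) that had been exposed 24 h to 4×10^5 L. donovani HU3 amastigotes harvested from infected mouse spleens.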

[3] = test system: Trypanosoma cruzi amastigotes cultured in 3T3 fibroblast cells; assay: Assay for growth inhibition of kinetoplastid parasite Trypanosoma cruzi (beta-galactosidase Tulahuen strain, CPRG readout); details: Trypanosoma cruzi, Fibroblast, T. cruzi amastigotes in 3T3 fibroblast cells; read-out: Buckner infectious T. cruzi EC50
Summary of the method: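 3T3 fibroblasts (1,000 cells/well) plated overnight, treated with compound in DMSO, then infected with 10,000 Lac-Z-expressing Tulahuen trypomastigotes. After 6 days, 0.6 mM CPRG with 0.6% NP-40 added for 2 h at room temperature; absorbance gives relative intracellular amastigote numbers. Benznidazole and nifurtimox serve as positive controls.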

[4] = test system: Trypanosoma brucei brucei (Lister 427) strain; assay: Assay for growth inhibition against Trypanosoma brucei brucei (Cell TiterGlo ATP luminescence); details: Trypanosoma brucei, T. brucei brucei (Lister 427); read-out: T. Brucei (HAT) EC50
Summary of the method: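 Growth read-out is cellular ATP by CellTiter-Glo luminescence, measured 30 min after reagent addition, following 2-day incubation at 37 °C in CO2. Parasites (10,000/mL, HMI-9 plus 10% FBS and 10% serum plus) faced 10 threefold dilutions in duplicate; IC50 taken as 50% growth inhibition versus untreated.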

Compound: O=C(Nc1ccc(F)c(-n2cc3cc(-c4ncccc4Cl)cnc3n2)c1)N1CC(F)(F)C1 [Compound 310, N-{3-[5-(3-chloropyridin-2-yl)-2H-pyrazolo[3,4-b]pyridin-2-yl]-4-fluorophenyl}-3,3-difluoroazetidine-1-carboxamide]
- EC50 [1]: 0.002 µM
- EC50 [2]: 0.002 µM
- EC50 [3]: 0.001 µM
- EC50 [4]: 0.005 µM

Compound: O=C(Nc1ccc(F)c(-n2cc3cccnc3n2)c1)N1CC(F)C1 [Compound 311, 3-fluoro-N-(4-fluoro-3-(2H-pyrazolo[3,4-b]pyridin-2-yl)phenyl)azetidine-1-carboxamide]
- EC50 [1]: 0.058 µM
- EC50 [2]: 0.033 µM
- EC50 [3]: 0.031 µM
- EC50 [4]: 0.027 µM

Compound: Cc1nccnc1-c1cnc2nn(-c3cc(NC(=O)N4CC(F)C4)ccc3F)cc2c1 [Compound 312, 3-fluoro-N-{4-fluoro-3-[5-(3-methylpyrazin-2-yl)-2H-pyrazolo[3,4-b]pyridin-2-yl]phenyl}azetidine-1-carboxamide]
- EC50 [1]: 0.003 µM
- EC50 [2]: 0.002 µM
- EC50 [3]: 0.004 µM
- EC50 [4]: 0.033 µM

Compound: O=C(Nc1ccc(F)c(-n2cc3cc(-c4ncccc4F)cnc3n2)c1)N1CCC1 [Compound 313, N-{4-fluoro-3-[5-(3-fluoropyridin-2-yl)-2H-pyrazolo[3,4-b]pyridin-2-yl]phenyl}azetidine-1-carboxamide]
- EC50 [1]: 0.001 µM
- EC50 [2]: 0.002 µM
- EC50 [3]: 0.001 µM
- EC50 [4]: 0.005 µM

Compound: O=C(Nc1ccc(F)c(-n2cc3cc(-c4ncccc4Cl)cnc3n2)c1)N1CCC1 [Compound 315, N-{3-[5-(3-chloropyridin-2-yl)-2H-pyrazolo[3,4-b]pyridin-2-yl]-4-fluorophenyl}azetidine-1-carboxamide]
- EC50 [1]: 0.002 µM
- EC50 [2]: 0.002 µM
- EC50 [3]: 0.001 µM
- EC50 [4]: 0.005 µM

Compound: O=C(Nc1ccc(F)c(-n2cc3cc(-c4ncccc4Cl)cnc3n2)c1)N1CC[C@@H](F)C1 [Compound 316, (3R)-N-{3-[5-(3-chloropyridin-2-yl)-2H-pyrazolo[3,4-b]pyridin-2-yl]-4-fluorophenyl}-3-fluoropyrrolidine-1-carboxamide]
- EC50 [1]: 0.002 µM
- EC50 [2]: 0.002 µM
- EC50 [3]: 0.001 µM
- EC50 [4]: 0.005 µM

Compound: O=C(Nc1ccc(F)c(-n2cc3cc(-c4ncccc4F)cnc3n2)c1)N1CC[C@@H](F)C1 [Compound 317, (3R)-3-fluoro-N-{4-fluoro-3-[5-(3-fluoropyridin-2-yl)-2H-pyrazolo[3,4-b]pyridin-2-yl]phenyl}pyrrolidine-1-carboxamide]
- EC50 [1]: 0.002 µM
- EC50 [2]: 0.002 µM
- EC50 [3]: 0.001 µM
- EC50 [4]: 0.005 µM

Compound: Cc1cnc2nn(-c3cc(NC(=O)N4CC(F)C4)ccc3F)cc2c1 [Compound 318, 3-fluoro-N-(4-fluoro-3-{5-methyl-2H-pyrazolo[3,4-b]pyridin-2-yl}phenyl)azetidine-1-carboxamide]
- EC50 [1]: 0.027 µM
- EC50 [2]: 0.032 µM
- EC50 [3]: 0.013 µM
- EC50 [4]: 0.015 µM

Compound: O=C(Nc1ccc(F)c(-n2cc3cc(-n4ccnc4)cnc3n2)c1)N1CC(F)C1 [Compound 323, 3-fluoro-N-{4-fluoro-3-[5-(1H-imidazol-1-yl)-2H-pyrazolo[3,4-b]pyridin-2-yl]phenyl}azetidine-1-carboxamide]
- EC50 [1]: 0.012 µM
- EC50 [2]: 0.113 µM
- EC50 [3]: 0.062 µM
- EC50 [4]: 0.015 µM

Compound: O=C(Nc1ccc(F)c(-n2cc3cc(C(F)(F)F)cnc3n2)c1)N1CC(F)(F)C1 [Compound 324, 3,3-difluoro-N-{4-fluoro-3-[5-(trifluoromethyl)-2H-pyrazolo[3,4-b]pyridin-2-yl]phenyl}azetidine-1-carboxamide]
- EC50 [1]: 0.015 µM
- EC50 [2]: 0.045 µM
- EC50 [3]: 0.016 µM
- EC50 [4]: 0.037 µM

Compound: O=C(Nc1ccc(F)c(-n2cc3cc(-c4cnn(C5CC5)c4)cnc3n2)c1)N1CC(F)C1 [Compound 325, N-{3-[5-(1-cyclopropyl-1H-pyrazol-4-yl)-2H-pyrazolo[3,4-b]pyridin-2-yl]-4-fluorophenyl}-3-fluoroazetidine-1-carboxamide]
- EC50 [1]: 0.008 µM
- EC50 [2]: 0.05 µM
- EC50 [3]: 0.036 µM
- EC50 [4]: 0.011 µM

Compound: O=C(Nc1ccc(F)c(-n2cc3cc(N4CC(F)(F)C4)cnc3n2)c1)C1CC1 [Compound 326, N-{3-[5-(3,3-difluoroazetidin-1-yl)-2H-pyrazolo[3,4-b]pyridin-2-yl]-4-fluorophenyl}cyclopropanecarboxamide]
- EC50 [1]: 0.189 µM
- EC50 [2]: 0.761 µM
- EC50 [3]: 0.119 µM
- EC50 [4]: 0.236 µM

Compound: O=C(Nc1ccc(F)c(-n2cc3cc(N4CC(F)C4)cnc3n2)c1)C1CC1 [Compound 327, N-{4-fluoro-3-[5-(3-fluoroazetidin-1-yl)-2H-pyrazolo[3,4-b]pyridin-2-yl]phenyl}cyclopropanecarboxamide]
- EC50 [1]: 0.351 µM
- EC50 [2]: 1.21 µM
- EC50 [3]: 0.149 µM
- EC50 [4]: 0.232 µM

Compound: Cc1cn(-c2cnc3nn(-c4cc(NC(=O)N5CC(F)C5)ccc4F)cc3c2)cn1 [Compound 328, 3-fluoro-N-{4-fluoro-3-[5-(4-methyl-1H-imidazol-1-yl)-2H-pyrazolo[3,4-b]pyridin-2-yl]phenyl}azetidine-1-carboxamide]
- EC50 [1]: 0.023 µM
- EC50 [2]: 0.16 µM
- EC50 [3]: 0.083 µM
- EC50 [4]: 0.017 µM

Compound: O=C(Nc1ccc(F)c(-n2cc3cc(-c4ccc(F)cn4)cnc3n2)c1)N1CC(F)C1 [Compound 329, 3-fluoro-N-{4-fluoro-3-[5-(5-fluoropyridin-2-yl)-2H-pyrazolo[3,4-b]pyridin-2-yl]phenyl}azetidine-1-carboxamide]
- EC50 [1]: 0.001 µM
- EC50 [2]: 0.002 µM
- EC50 [3]: 0.001 µM
- EC50 [4]: 0.002 µM

Compound: O=C(Nc1ccc(F)c(-n2cc3cc(-c4ccc(F)cn4)cnc3n2)c1)N1CCC1 [Compound 330, N-{4-fluoro-3-[5-(5-fluoropyridin-2-yl)-2H-pyrazolo[3,4-b]pyridin-2-yl]phenyl}azetidine-1-carboxamide]
- EC50 [1]: 0.001 µM
- EC50 [2]: 0.002 µM
- EC50 [3]: 0.001 µM
- EC50 [4]: 0.001 µM

Compound: CN(C)c1cnc2nn(-c3cc(NC(=O)C4CC4)ccc3F)cc2c1 [Compound 331, N-{3-[5-(dimethylamino)-2H-pyrazolo[3,4-b]pyridin-2-yl]-4-fluorophenyl}cyclopropanecarboxamide]
- EC50 [1]: 0.217 µM
- EC50 [2]: 0.91 µM
- EC50 [3]: 0.138 µM
- EC50 [4]: 0.206 µM

Compound: O=C(Nc1ccc(F)c(-n2cc3cc(-c4ncccc4F)cnc3n2)c1)C1CC1 [Compound 332, N-{4-fluoro-3-[5-(3-fluoropyridin-2-yl)-2H-pyrazolo[3,4-b]pyridin-2-yl]phenyl}cyclopropanecarboxamide]
- EC50 [1]: 0.028 µM
- EC50 [2]: 0.075 µM
- EC50 [3]: 0.015 µM
- EC50 [4]: 0.038 µM

Compound: Cc1cccnc1-c1cnc2nn(-c3cc(NC(=O)c4oc(CO)nc4C)ccc3F)cc2c1 [Compound 334, N-(4-fluoro-3-(5-(3-methylpyridin-2-yl)-2H-pyrazolo[3,4-b]pyridin-2-yl)phenyl)-2-(hydroxymethyl)-4-methyloxazole-5-carboxamide]
- EC50 [1]: 0.236 µM
- EC50 [2]: 1.87 µM
- EC50 [3]: 1.46 µM
- EC50 [4]: 0.269 µM

Compound: Cc1nc(C)c(C(=O)Nc2ccc(F)c(-n3cc4cc(-c5ncccc5CO)cnc4n3)c2)o1 [Compound 335]
- EC50 [1]: 0.013 µM
- EC50 [2]: 0.111 µM
- EC50 [3]: 0.47 µM
- EC50 [4]: 0.036 µM
